Measured values as given in PubChem BioAssay AID330 (DTP/NCI, 2004).
Values joined by “and” are separate entries in the source; they are usually repeats but may differ in a detail not shown here. Identical values can stand only once. Inconclusive results and toxic doses are left out. Rule for the calls: active = survival T/C of 150% or more; inactive = T/C below 125% in these data.

Tested on: P388 leukemia ip, CD2F1 mice, survival T/C
Test: NCI In Vivo Anticancer Drug Screen. Data for tumor model P388 Leukemia (intraperitoneal) in CD2F1 (CDF1) mice
Settings: endpoint: median survival time, higher = longer survival
Outline: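 Mice carrying the transplanted tumor received test compound or vehicle. Survival was recorded in each group, and the value is the treated-group measurement divided by that of the vehicle-treated control group.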

[1] = dose: 50.0 mg/kg/injection, schedule: Q01DX005 (ip), vehicle: saline with Tween-80
[2] = dose: 100.0 mg/kg/injection, schedule: Q01DX005 (ip), vehicle: saline with Tween-80
[3] = dose: 200.0 mg/kg/injection, schedule: Q01DX005 (ip), vehicle: saline with Tween-80
[4] = dose: 120.0 mg/kg/injection, schedule: Q01DX005 (ip), vehicle: Klucel (hydroxypropylcellulose) (HPC)
[5] = dose: 60.0 mg/kg/injection, schedule: Q01DX005 (ip), vehicle: saline with Tween-80
[6] = dose: 120.0 mg/kg/injection, schedule: Q01DX005 (ip), vehicle: saline with Tween-80
[7] = dose: 240.0 mg/kg/injection, schedule: Q01DX005 (ip), vehicle: saline with Tween-80
[8] = dose: 100.0 mg/kg/injection, schedule: Q01DX009 (ip), vehicle: saline with Tween-80
[9] = dose: 200.0 mg/kg/injection, schedule: Q01DX009 (ip), vehicle: saline with Tween-80
[10] = dose: 400.0 mg/kg/injection, schedule: Q01DX009 (ip), vehicle: saline with Tween-80
[11] = dose: 50.0 mg/kg/injection, schedule: Q01DX005 (ip), vehicle: Klucel (hydroxypropylcellulose) (HPC)
[12] = dose: 100.0 mg/kg/injection, schedule: Q01DX005 (ip), vehicle: Klucel (hydroxypropylcellulose) (HPC)
[13] = dose: 200.0 mg/kg/injection, schedule: Q01DX005 (ip), vehicle: Klucel (hydroxypropylcellulose) (HPC)

Measured: T/C

COC(=O)C1(C)CCCC2(C)c3cc(OC)ccc3C3(CC12)OCCS3 (stereo not given)
inactive: dose: 2.5 mg/kg/injection, schedule: Q01DX009 (ip), vehicle: saline with Tween-80 100 % of control | dose: 5.0 mg/kg/injection, schedule: Q01DX009 (ip), vehicle: saline with Tween-80 98 % of control | dose: 10.0 mg/kg/injection, schedule: Q01DX009 (ip), vehicle: saline with Tween-80 92 % of control

CCOc1cc2c(cc1Cc1ccc3c(c1)OCO3)OCO2
inactive: [1] 97 % of control | [2] 107 % of control | [3] 107 % of control

O=C(C#Cc1ccccc1)c1cccnc1
inactive: dose: 12.5 mg/kg/injection, schedule: Q04DX003 (ip), vehicle: Klucel (hydroxypropylcellulose) (HPC) 107 % of control | dose: 25.0 mg/kg/injection, schedule: Q04DX003 (ip), vehicle: Klucel (hydroxypropylcellulose) (HPC) 107 % of control

CC(=O)N/N=C/C(C)(C)C(C)(C)/C=N/NC(C)=O
active: [4] 153 % of control

OC1COC(Sc2ncc[nH]2)C(O)C1O (stereo not given)
inactive: [5] 97 % of control | dose: 60.0 mg/kg/injection, schedule: Q01DX005 (ip), vehicle: saline 96 % of control | [6] 97 % of control | dose: 120.0 mg/kg/injection, schedule: Q01DX005 (ip), vehicle: saline 97 % of control | [7] 94 % of control | dose: 240.0 mg/kg/injection, schedule: Q01DX005 (ip), vehicle: saline 97 % of control

N#Cc1cc2cccn2c2c1cnn2-c1ccccc1
inactive: [5] 105 % of control | [6] 98 % of control | [7] 89 % of control

COc1cc2ccc3c(c2cc1OC)CNCC3
inactive: dose: 50.0 mg/kg/injection, schedule: Q01DX009 (ip), vehicle: saline 100 % of control | dose: 100.0 mg/kg/injection, schedule: Q01DX009 (ip), vehicle: saline 100 % of control

COc1cccc2c1C(=O)c1c(O)c3c(c(O)c1C2=O)C[C@@](O)(C(=O)COC(=O)Cc1cccc2ccccc12)C[C@@H]3OC1CC(N)C(O)C(C)O1 (stereo not given in full)
active: dose: 0.5 mg/kg/injection, schedule: Q01DX009 (ip), vehicle: other 164 % of control | dose: 0.5 mg/kg/injection, schedule: Q01DX009 (ip), vehicle: saline with Tween-80 169 % of control | dose: 0.78 mg/kg/injection, schedule: Q01DX009 (ip), vehicle: other 157 % of control | dose: 1.0 mg/kg/injection, schedule: Q01DX009 (ip), vehicle: other 156 % of control | dose: 1.0 mg/kg/injection, schedule: Q01DX009 (ip), vehicle: saline with Tween-80 183 % of control | dose: 1.56 mg/kg/injection, schedule: Q01DX009 (ip), vehicle: other 190 % of control | dose: 2.0 mg/kg/injection, schedule: Q01DX009 (ip), vehicle: other 170 % of control | dose: 2.0 mg/kg/injection, schedule: Q01DX009 (ip), vehicle: saline with Tween-80 231 % of control | dose: 3.13 mg/kg/injection, schedule: Q01DX009 (ip), vehicle: other 245 % of control | dose: 4.0 mg/kg/injection, schedule: Q01DX009 (ip), vehicle: saline with Tween-80 161 % of control and 277 % of control
inactive: dose: 0.5 mg/kg/injection, schedule: Q01DX009 (ip), vehicle: saline 107 % of control | dose: 1.0 mg/kg/injection, schedule: Q01DX009 (ip), vehicle: saline 121 % of control | dose: 2.0 mg/kg/injection, schedule: Q01DX009 (ip), vehicle: saline 124 % of control | dose: 4.0 mg/kg/injection, schedule: Q01DX009 (ip), vehicle: other 113 % of control | dose: 4.0 mg/kg/injection, schedule: Q01DX009 (ip), vehicle: saline 122 % of control | dose: 8.0 mg/kg/injection, schedule: Q01DX009 (ip), vehicle: saline with Tween-80 100 % of control | dose: 16.0 mg/kg/injection, schedule: Q01DX009 (ip), vehicle: saline with Tween-80 99 % of control

Nc1nc2nc(-c3ccccc3)nc(N)c2nc1C(=O)N/N=C/c1ccccc1
inactive: [8] 96 % of control | [9] 95 % of control | [10] 100 % of control

CCOC(=O)Cc1c[nH]c2ccc(N(CCO)CCO)cc12
inactive: dose: 25.0 mg/kg/injection, schedule: Q01DX005 (ip), vehicle: Klucel (hydroxypropylcellulose) (HPC) 101 % of control | [11] 102 % of control | [12] 102 % of control | [13] 98 % of control

N#Cc1ccc(NC(=O)Nc2ccc(Cc3ccc(NC(=O)Nc4ccc(C#N)cc4)cc3)cc2)cc1
inactive: dose: 15.0 mg/kg/injection, schedule: Q01DX005 (ip), vehicle: Klucel (hydroxypropylcellulose) (HPC) 97 % of control | dose: 30.0 mg/kg/injection, schedule: Q01DX005 (ip), vehicle: Klucel (hydroxypropylcellulose) (HPC) 90 % of control | dose: 60.0 mg/kg/injection, schedule: Q01DX005 (ip), vehicle: Klucel (hydroxypropylcellulose) (HPC) 87 % of control | [4] 94 % of control

CS(=O)(=O)OCC(O)C(O)C(OS(C)(=O)=O)C(O)COS(C)(=O)=O (stereo not given)
inactive: dose: 50.0 mg/kg/injection, schedule: Q04DX003 (ip), vehicle: Klucel (hydroxypropylcellulose) (HPC) 100 % of control | dose: 100.0 mg/kg/injection, schedule: Q04DX003 (ip), vehicle: Klucel (hydroxypropylcellulose) (HPC) 100 % of control

CC(C)C(=O)C(O)C(C)C (stereo not given)
inactive: dose: 50.0 mg/kg/injection, schedule: Q01DX005 (ip), vehicle: saline 92 % of control | dose: 100.0 mg/kg/injection, schedule: Q01DX005 (ip), vehicle: saline 103 % of control | dose: 200.0 mg/kg/injection, schedule: Q01DX005 (ip), vehicle: saline 100 % of control

CC(=O)OCC(=O)[C@@]1(O)CC[C@H]2[C@@H]3C[C@@H](C)C4=CC(=O)C=C[C@]4(C)[C@H]3[C@@H](O)C[C@@]21C
inactive: [8] 100 % of control | [9] 100 % of control | [10] 100 % of control

COc1cc(/C=C/c2ccccn2)oc(=O)c1
inactive: dose: 100.0 mg/kg/injection, schedule: Q04DX002 (ip), vehicle: Klucel (hydroxypropylcellulose) (HPC) 102 % of control | dose: 200.0 mg/kg/injection, schedule: Q04DX002 (ip), vehicle: Klucel (hydroxypropylcellulose) (HPC) 100 % of control | dose: 400.0 mg/kg/injection, schedule: Q04DX002 (ip), vehicle: Klucel (hydroxypropylcellulose) (HPC) 100 % of control

[NH-]C(CO)C(O)c1ccccc1.[NH-]C(CO)C(O)c1ccccc1.[NH-]C(CO)C(O)c1ccccc1.[Pr+3] (stereo not given)
inactive: [11] 103 % of control | [12] 97 % of control | [13] 99 % of control

O=CNC(Cc1ccccc1)C(=O)O (stereo not given)
inactive: [1] 94 % of control | [2] 102 % of control

N#CN1C2CCC1CC(O)(c1ccccc1)C2 (stereo not given)
inactive: [1] 104 % of control and 99 % of control | [2] 102 % of control | [3] 103 % of control

CC(SC(C)C(=O)N/N=C/c1ccc(C#N)cc1)C(=O)N/N=C\c1ccc(C#N)cc1 (stereo not given)
inactive: dose: 100.0 mg/kg/injection, schedule: Q01DX009 (ip), vehicle: suspension in saline 97 % of control | dose: 200.0 mg/kg/injection, schedule: Q01DX009 (ip), vehicle: suspension in saline 101 % of control | dose: 400.0 mg/kg/injection, schedule: Q01DX009 (ip), vehicle: suspension in saline 90 % of control

Cc1c2c(nc3ccccc13)-c1ccccc1C(C)(C)C2O (stereo not given)
inactive: dose: 100.0 mg/kg/injection, schedule: Q01DX001 (ip), vehicle: saline with Tween-80 99 % of control | dose: 200.0 mg/kg/injection, schedule: Q01DX001 (ip), vehicle: saline with Tween-80 106 % of control | dose: 400.0 mg/kg/injection, schedule: Q01DX001 (ip), vehicle: saline with Tween-80 106 % of control

CCNCC(=O)Nc1ccc2c(c1)C(=O)c1ccc(NC(=O)CNCC)cc1C2=O
inactive: dose: 25.0 mg/kg/injection, schedule: Q04DX002 (ip), vehicle: saline with Tween-80 100 % of control | dose: 50.0 mg/kg/injection, schedule: Q04DX002 (ip), vehicle: saline with Tween-80 110 % of control | dose: 100.0 mg/kg/injection, schedule: Q04DX002 (ip), vehicle: saline with Tween-80 102 % of control | dose: 200.0 mg/kg/injection, schedule: Q04DX002 (ip), vehicle: saline with Tween-80 108 % of control and 93 % of control

Cc1ccc(C(=O)/C(N)=C/c2ccccn2)cc1
inactive: dose: 100.0 mg/kg/injection, schedule: Q01DX001 (ip), vehicle: saline 107 % of control | dose: 200.0 mg/kg/injection, schedule: Q01DX001 (ip), vehicle: saline 105 % of control | dose: 400.0 mg/kg/injection, schedule: Q01DX001 (ip), vehicle: saline 101 % of control
